Reference: patent US20150105252A1, “SUBSTITUTED PYRAZOLES AS HERBICIDES” (E I DU PONT DE NEMOURS AND COMPANY, priority 2013, published 2015)

Legend:
blackgrass = assay: Test C postemergence; format: in vivo, Alopecurus myosuroides
From the text: (§1) Seeds of plant species selected from blackgrass (Alopecurus myosuroides), ryegrass, Italian (Italian ryegrass, Lolium multiflorum), wheat (winter wheat, Triticum aestivum), galium (catchweed bedstraw, Galium aparine), corn (Zea mays), crabgrass, large (large crabgrass, Digitaria sanguinalis), foxtail, giant (giant foxtail, Setaria faberii), johnsongrass (Sorghum halepense), lambsquarters (Chenopodium album), morningglory (Ipomoea coccinea), nutsedge, yellow (yellow nutsedge, Cyperus esculentus), pigweed (redroot pigweed, Amaranthus retroflexus), ragweed (common ragweed, Ambrosia elation), soybean (Glycine max), barnyardgrass (Echinochloa crus-galli), oilseed rape (Brassica napus), waterhemp (common waterhemp, Amaranthus rudis), oat, wild (wild oat, Avena fatua), kochia (Kochia scoparia), Surinam grass (Brachiaria decumbens), foxtail, green (green foxtail, Setaria viridis), goosegrass (Eleusine indica), bromegrass, downy (downy bromegrass, Bromus tectorum), nightshade (eastern black nightshade, Solanum ptycanthum), cocklebur (common cocklebur, Xanthium strumarium), cupgrass, woolly (woolly cupgrass, Eriochloa villosa), bermudagrass (Cynodon dactylon), sunflower, (common oilseed sunflower, Helianthus annuus), Russian thistle (Salsola kali), and velvetleaf (Abutilon theophrasti) were planted into a blend of loam soil and sand and treated preemergence with test chemicals formulated in a non-phytotoxic solvent mixture which included a surfactant.
(§2) At the same time, plants selected from these crop and weed species and also chickweed (common chickweed, Stellaria media), canarygrass (littleseed canarygrass, Phalaris minor), and deadnettle (henbit deadnettle, Lamium amplexicaule), were planted in pots containing Redi-Earth® planting medium (Scotts Company, 14111 Scottslawn Road, Marysville, Ohio 43041) comprising spaghnum peat moss, vermiculite, wetting agent and starter nutrients and treated with postemergence applications of test chemicals formulated in the same manner. Plants ranged in height from 2 to 18 cm (1- to 4-leaf stage) for postemergence treatments. Treated plants and controls were maintained in a greenhouse for 13 to 15 days, after which time all species were compared to controls and visually evaluated. Plant response ratings, summarized in Table C, are based on a scale of 0 to 100 where 0 is no effect and 100 is complete control. A dash (-) response means no test result.

crabgrass, large [1] = assay: Test C postemergence; format: in vivo, Digitaria sanguinalis
From the text: as §1, §2

johnsongrass [2] = assay: Test C postemergence; format: in vivo, Sorghum halepense
From the text: as §1, §2

morningglory = assay: Test C postemergence; format: in vivo, Ipomoea coccinea
From the text: as §1, §2

velvetleaf [3] = assay: Test C postemergence; format: in vivo, Abutilon theophrasti; conditions: postemergence
From the text: as §1, §2

chickweed = assay: Test C postemergence; format: in vivo, Stellaria media
From the text: as §1, §2

crabgrass, large [4] = assay: Test A postemergence; format: in vivo, Digitaria sanguinalis; conditions: Postemergence
Outline: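 Scoring was visual, on a scale where 100 means complete control and 0 means no effect, comparing treated with untreated plants around 10 days post-application. Compounds in surfactant-containing non-phytotoxic solvent were sprayed onto soil preemergence or onto one- to two-leaf seedlings (2–10 cm) postemergence.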

wheat = assay: Test C preemergence; format: in vivo, Triticum aestivum
Outline: (§3)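 Greenhouse pot test: preemergence application onto freshly seeded loam/sand mix, postemergence application onto seedlings (1–4 leaves, 2–18 cm) in peat-vermiculite substrate. Responses scored visually 13 to 15 days later relative to controls, where 0 means no effect and 100 means complete control; a dash indicates no result.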

galium = assay: Test C preemergence; format: in vivo, Galium aparine
From the text: as §1, §2

johnsongrass [5] = assay: Test C preemergence; format: in vivo, Sorghum halepense
Outline: as §3

lambsquarters = assay: Test C preemergence; format: in vivo, Chenopodium album
From the text: as §1, §2

soybean = assay: Test C preemergence; format: in vivo, Glycine max
Outline: as §3

barnyardgrass = assay: Test C preemergence; format: in vivo, Echinochloa crus-galli; conditions: preemergence
From the text: as §1, §2

oilseed rape = assay: Test C preemergence; format: in vivo, Brassica napus
From the text: as §1, §2

velvetleaf [6] = assay: Test C preemergence; format: in vivo, Abutilon theophrasti
Outline: as §3

[7] = Postemergence, 31 g ai/ha, visually evaluated after 13 to 15 days
[8] = postemergence, 62 g ai/ha, scale 0 to 100
[9] = postemergence, 250 g ai/ha, scale 0 to 100 (0 no effect, 100 complete control)
[10] = postemergence, 125 g ai/ha, scale 0 to 100, 0 no effect, 100 complete control
[11] = Preemergence, rate head not shown (block before 16 g ai/ha), scale 0 to 100
[12] = preemergence, 62 g ai/ha, scale 0 to 100 (0 no effect, 100 complete control), 13 to 15 days
[13] = preemergence, 125 g ai/ha, 13 to 15 days, scale 0 to 100, 0 = no effect, 100 = complete control
[14] = preemergence, 250 g ai/ha, scale 0 to 100, 0 is no effect, 100 is complete control

CCc1cc(C(=O)NCC(F)(F)F)nn1Cc1cc(OC(F)F)nn1C [Compound 206]
Plant response rating (scale of 0 to 100 where 0 is no effect and 100 is complete control), Blackgrass (blackgrass; [7]): 0
Blackgrass plant response rating (blackgrass; [8]): 0
Plant response rating, Blackgrass (blackgrass; [9]): 5
Plant response rating, Blackgrass (blackgrass; [10]): 5
Plant response rating (scale of 0 to 100 where 0 is no effect and 100 is complete control), Crabgrass, Large (crabgrass, large [1]; [7]): 5
Crabgrass, Large plant response rating (crabgrass, large [1]; [8]): 5
Plant response rating, Crabgrass, Large (crabgrass, large [1]; [9]): 5
Plant response rating, Crabgrass, Large (crabgrass, large [1]; [10]): 5
Plant response rating (scale of 0 to 100 where 0 is no effect and 100 is complete control), Johnsongrass (johnsongrass [2]; [7]): 0
Johnsongrass plant response rating (johnsongrass [2]; [8]): 0
Plant response rating, Johnsongrass (johnsongrass [2]; [9]): 5
Plant response rating, Johnsongrass (johnsongrass [2]; [10]): 5
Plant response rating (scale of 0 to 100 where 0 is no effect and 100 is complete control), Morningglory (morningglory; [7]): 40
Morningglory plant response rating (morningglory; [8]): 40
Plant response rating, Morningglory (morningglory; [9]): 65
Plant response rating, Morningglory (morningglory; [10]): 60
Plant response rating, Velvetleaf (velvetleaf [3]; 250 g ai/ha, scale 0 to 100 (0 no effect, 100 complete control)): 10
Velvetleaf plant response rating (velvetleaf [3]; scale 0 to 100): 10
Plant response rating (scale of 0 to 100 where 0 is no effect and 100 is complete control), Chickweed (chickweed; [7]): 5
Chickweed plant response rating (chickweed; [8]): 5
Plant response rating, Chickweed (chickweed; [9]): 75
Plant response rating, Chickweed (chickweed; [10]): 5

CCc1cc(C(=O)NC2CC2)nn1Cc1cc(C(F)(F)C(F)(F)F)nn1C [Compound 226]
Crabgrass, Large plant response rating (crabgrass, large [4]; 125 g ai/ha, 0 to 100 scale, 0 no effect, 100 complete control): 70
Crabgrass, Large plant response rating (crabgrass, large [4]; 500 g ai/ha, 0 to 100 scale (0 no effect, 100 complete control)): 90
Plant response rating, Wheat (wheat; [11]): 15
Wheat plant response rating (wheat; [12]): 0
Plant response rating, Wheat (wheat; [13]): 0
Wheat plant response rating (wheat; [14]): 10
Plant response rating, Galium (galium; [11]): 0
Galium plant response rating (galium; [12]): 90
Plant response rating, Galium (galium; [13]): 80
Galium plant response rating (galium; [14]): 90
Plant response rating, Johnsongrass (johnsongrass [5]; [11]): 10
Johnsongrass plant response rating (johnsongrass [5]; [12]): 55
Plant response rating, Johnsongrass (johnsongrass [5]; [13]): 100
Johnsongrass plant response rating (johnsongrass [5]; [14]): 85
Plant response rating, Lambsquarters (lambsquarters; [11]): 100
Lambsquarters plant response rating (lambsquarters; [12]): 100
Plant response rating, Lambsquarters (lambsquarters; [13]): 100
Lambsquarters plant response rating (lambsquarters; [14]): 100
Plant response rating, Soybean (soybean; [11]): 10
Soybean plant response rating (soybean; [12]): 70
Plant response rating, Soybean (soybean; [13]): 95
Soybean plant response rating (soybean; [14]): 100
Barnyardgrass plant response rating (barnyardgrass; 31 g ai/ha, visual rating, scale 0 to 100 (0 no effect, 100 complete control), 13 to 15 days): 10
Barnyardgrass plant response rating (barnyardgrass; 62 g ai/ha, scale 0 to 100 (0 no effect, 100 complete control), 13 to 15 days): 65
Plant response rating, Barnyardgrass (barnyardgrass; 125 g ai/ha, 13 to 15 days, scale 0 to 100, 0 = no effect, 100 = complete control): 95
Barnyardgrass plant response rating (barnyardgrass; 250 g ai/ha, scale 0 to 100, 0 is no effect, 100 is complete control): 100
Plant response rating, Oilseed Rape (oilseed rape; [11]): 30
Oilseed Rape plant response rating (oilseed rape; [12]): 85
Plant response rating, Oilseed Rape (oilseed rape; [13]): 100
Oilseed Rape plant response rating (oilseed rape; [14]): 95
Plant response rating, Velvetleaf (velvetleaf [6]; [11]): 25
Velvetleaf plant response rating (velvetleaf [6]; [12]): 80
Plant response rating, Velvetleaf (velvetleaf [6]; [13]): 100
Velvetleaf plant response rating (velvetleaf [6]; [14]): 100
